The text below walks through data of patent US9850283B2, “Macrocyclic inhibitors of the PD-1/PD-L1 and CD80(B7-1)/PD-L1 protein/protein interactions” (BRISTOL-MYERS SQUIBB COMPANY, priority 2013, dated 2017).

Where two headings read alike, the source gives them in different places. Positions of bridges follow the written chain, without caps; N, C: chain ends. Non-standard residues stand in square brackets, D forms with d. Residues, ends and D or L forms follow the SMILES beside them. ξ: configuration not given here. Bta = N[C@@H](Cc1csc2ccccc12)C(=O)O; Hyp = O=C(O)[C@@H]1C[C@@H](O)CN1; AllylGly = C=CC[C@H](N)C(=O)O; NMeNle = CCCC[C@H](NC)C(=O)O; NMeM = CN[C@@H](CCSC)C(=O)O; NMeA = CN[C@@H](C)C(=O)O; Dab = NCC[C@H](N)C(=O)O; ξC = NC(CS)C(=O)O

A word on the IC50: it is the point on the concentration scale where inhibition reaches its midpoint.

The target in one assay is T1, Human PD-L1/PD-1 (Homo sapiens, UniProt Q9NZQ7).
T1 construct: made in house; host or cells: HEK293T
T1 sequence (Q9NZQ7 with tags, fused parts or gaps): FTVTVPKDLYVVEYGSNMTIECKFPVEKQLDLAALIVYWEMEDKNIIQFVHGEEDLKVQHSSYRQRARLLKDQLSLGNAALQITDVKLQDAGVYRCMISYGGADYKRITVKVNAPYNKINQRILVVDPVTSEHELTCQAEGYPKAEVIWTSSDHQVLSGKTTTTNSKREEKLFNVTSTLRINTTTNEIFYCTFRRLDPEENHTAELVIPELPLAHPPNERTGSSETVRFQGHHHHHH
Nature of the assay: HTRF PD-1-Ig/PD-L1-His binding assay (human PD-L1). The essentials:
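Soluble PD-1-Ig binding to PD-L1-His measured by HTRF in dPBS with 0.1% BSA and 0.05% Tween-20. Detection used europium cryptate anti-Ig antibody (1 nM final) and APC anti-His antibody (20 nM final) added on top of the binding reaction.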
A general note: Time-resolved FRET reads energy transfer from a long-lived donor to a nearby acceptor.

The target of assay [1] is T2, LK35.2-hPD-L1 cells / PE-labeled PD-1-Ig (Homo sapiens, UniProt Q9NZQ7).
T2 construct: expressed in transfected cells; host or cells: LK35.2 mouse B cell line
T2 sequence (Q9NZQ7 19-290): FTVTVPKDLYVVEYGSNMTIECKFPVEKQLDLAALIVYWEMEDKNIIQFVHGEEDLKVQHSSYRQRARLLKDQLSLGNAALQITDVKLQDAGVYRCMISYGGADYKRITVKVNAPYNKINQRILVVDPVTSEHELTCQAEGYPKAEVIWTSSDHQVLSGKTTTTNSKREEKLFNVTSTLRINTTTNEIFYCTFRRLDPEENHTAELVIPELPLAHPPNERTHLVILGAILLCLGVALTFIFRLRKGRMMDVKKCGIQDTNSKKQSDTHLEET
Nature of the assay: LK35.2-hPD-L1 cell binding high-content screening assay. The format is cell-based. The essentials: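 Using overnight-cultured LK35.2-hPD-L1 mouse B cells, compound was co-incubated with phycoerythrin-tagged human PD-1-Ig (final 1 nM) at 37 °C for one hour. Unbound label was removed by triple dPBS washing prior to high-content image acquisition and analysis.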

Setting [2] is: cluster symbol, read-out: HTRF IC50 cluster.
Where [3] appears, read: cluster symbol, cell line of CBA not given (LK35.2-hPD-L1 or 293T-hPD-L1), read-out: CBA IC50 cluster.
Setting [4] is: cell binding assay, cell line not given, cluster symbol, read-out: CBA IC50 cluster.

`CCCC[C@H]1C(=O)N(C)[C@@H](CCCC)C(=O)N[C@@H](C)C(=O)N[C@H](C(=O)NCC(N)=O)CSCC(=O)N[C@@H](Cc2ccc(O)cc2)C(=O)N(C)[C@@H](C)C(=O)N[C@@H](CC(=O)O)C(=O)N2CCC[C@H]2C(=O)N[C@@H](CCN)C(=O)N[C@@H](CC(C)C)C(=O)N2C[C@H](O)C[C@H]2C(=O)N[C@@H](Cc2c[nH]c3ccccc23)C(=O)N[C@@H](CO)C(=O)N[C@@H](Cc2c[nH]c3ccccc23)C(=O)N1C` [Example 1158] ({CH2CO}-Y[NMeA]DP[Dab]L[Hyp]WSW[NMeNle][NMeNle]ACG-NH2; thioether N-14): the values for the IC50 (at Human PD-L1/PD-1 (setting [2]); in assay [1] (setting [3])) were 0.385 to 6.74 nM and 0.158 to 4.71 nM, respectively.

With `CCCC[C@H]1C(=O)N[C@@H](CCCNC(=N)N)C(=O)NC(C(=O)NCC(N)=O)CSCC(=O)N[C@@H](Cc2ccc(O)cc2)C(=O)N(C)[C@@H](C)C(=O)N[C@@H](CC(N)=O)C(=O)N2CCC[C@H]2C(=O)N[C@@H](Cc2cnc[nH]2)C(=O)N[C@@H](CO)C(=O)N2C[C@H](O)C[C@H]2C(=O)N[C@@H](Cc2c[nH]c3ccccc23)C(=O)N[C@@H](CO)C(=O)N[C@@H](Cc2csc3ccccc23)C(=O)N(C)[C@@H](CCSC)C(=O)N1C` (stereo partly drawn) [Example 9114] ({CH2CO}-Y[NMeA]NPHS[Hyp]WS[Bta][NMeM][NMeNle]R[ξC]G-NH2; thioether N-14), the IC50 at Human PD-L1/PD-1 (setting [2]) was in the range of 6.76 to 30.3 nM; in assay [1] (setting [4]), 4.78 to 72.9 nM.

As to `CCCC[C@H]1C(=O)N2CCC[C@@H]2C(=O)N[C@@H](CC(=O)O)C(=O)N[C@@H](C(C)C)C(=O)N(C)[C@@H](Cc2ccccc2)C(=O)N[C@@H](Cc2ccc(O)cc2)C(=O)N(C)CC(=O)N[C@@H](Cc2c[nH]c3ccccc23)C(=O)N[C@@H](Cc2ccc(O)cc2)C(=O)N[C@@H](CC(C)C)C(=O)N[C@H](C(=O)NCC(N)=O)CSCC(=O)N[C@@H](Cc2ccccc2)C(=O)N(C)[C@@H](Cc2ccccc2)C(=O)N1C` [Example 3560] (HELM PEPTIDE1{[O=C(C[*:3])[*:2]].F.[meF].[CCCC[C@@H](C(=O)[*:2])N(C)[*:1]].[dP].D.V.[meF].Y.[Sar].W.Y.L.C.G.[am]}$PEPTIDE1,PEPTIDE1,1:R3-14:R3$$$V2.0), the values for the 50% inhibitory concentration (IC50) (on Human PD-L1/PD-1 (setting [2]); in assay [1] (setting [4])) were 6.76 to 30.3 nM and 0.158 to 4.71 nM, respectively.

Regarding `CCCC[C@H]1C(=O)N(C)CC(=O)N[C@@H](CC(=O)O)C(=O)N[C@@H](CO)C(=O)N(C)[C@@H](Cc2ccccc2)C(=O)N[C@@H](Cc2ccc(O)cc2)C(=O)N(C)CC(=O)N[C@@H](Cc2c[nH]c3ccccc23)C(=O)N[C@@H](Cc2ccc(O)cc2)C(=O)N[C@@H](CC(C)C)C(=O)N[C@H](C(=O)NCC(N)=O)CSCC(=O)N[C@@H](Cc2ccccc2)C(=O)N(C)[C@@H](Cc2ccccc2)C(=O)N1C` [Example 3156] (HELM PEPTIDE1{[O=C(C[*:3])[*:2]].F.[meF].[CCCC[C@@H](C(=O)[*:2])N(C)[*:1]].[Sar].D.S.[meF].Y.[Sar].W.Y.L.C.G.[am]}$PEPTIDE1,PEPTIDE1,1:R3-14:R3$$$V2.0), the IC50 worked out at 439 nM at Human PD-L1/PD-1 (read-out: HTRF IC50 value) and 1870 nM in assay [1] (cell line of CBA not given (LK35.2-hPD-L1 or 293T-hPD-L1), read-out: CBA IC50 value).

Take `C=CC[C@@H]1NC(=O)[C@H](Cc2c[nH]c3ccccc23)NC(=O)[C@@H]2CCCN2C(=O)[C@H](CC(C)C)NC(=O)[C@H](Cc2cnc[nH]2)NC(=O)[C@@H]2CCCN2C(=O)[C@H](CC(N)=O)NC(=O)[C@H](C)N(C)C(=O)[C@H](Cc2cnc[nH]2)NC(=O)CSC[C@@H](C(=O)NCC(N)=O)NC(=O)[C@H](CC=C)NC(=O)[C@H](CCCC)N(C)C(=O)[C@H](CCCC)N(C)C(=O)[C@H](Cc2c[nH]c3ccccc23)NC1=O` [Example 7021] ({CH2CO}-H[NMeA]NPHLPW[AllylGly]W[NMeNle][NMeNle][AllylGly]CG-NH2; thioether N-14): the half-inhibitory concentration (IC50) at Human PD-L1/PD-1 (setting [2]) is above 30.5 nM; in assay [1] (setting [4]), above 74.3 nM.

Turning to `CCCC[C@H]1C(=O)N(C)[C@@H](CCCC)C(=O)N[C@@H](C)C(=O)N[C@H](C(=O)NCC(=O)O)CSCC(=O)N[C@@H](Cc2ccc(O)cc2)C(=O)N(C)[C@@H](C)C(=O)N[C@@H](CC(N)=O)C(=O)N2CCC[C@H]2C(=O)N[C@@H](Cc2cnc[nH]2)C(=O)N[C@@H](CC(C)C)C(=O)N[C@@H](CCN)C(=O)N[C@@H](Cc2c[nH]c3ccccc23)C(=O)N[C@@H](CO)C(=O)N[C@@H](Cc2c[nH]c3ccccc23)C(=O)N1C` [Example 1229], the values for the half-maximal inhibitory concentration (IC50) (on Human PD-L1/PD-1 (setting [2]); in assay [1] (setting [3])) were 6.76 to 30.3 nM and 4.78 to 72.9 nM, respectively.
